For data set [1], the target named is GSK3α (Homo sapiens (Human), UniProt P49840). Description: GSK 3α enzyme inhibition (FRET, Z-LYTE). It counts as biochemical. The essentials:
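Phosphorylation was read as the donor (coumarin) to acceptor (fluorescein) ratio after a 1 hr protease step destroying non-phosphorylated peptide. Before this, compound (4–0.004 μg/mL stocks) sat 2 hr at RT with GSK3α (500 ng/mL stock), followed by 1 hr kinase reaction with 8 μM peptide and 40 μM ATP stocks.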

Data set [2] deals with d-U937 cells. Nature of the data set: Cell viability: MTT assay. Format: cell-based, human. The conditions noted are these: 1 μg/mL. Put shortly:
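MTT read-out (1 h, absorbance 550 nm) on d-U937 cells after pre-incubation with 1 or 10 μg/mL compound under two regimes: 4 h, 5% FCS, or 24 h, 10% FCS RPMI1640. Values are percent loss of viability relative to vehicle (0.5% DMSO), so increases are reported as negative.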

Data set [3] concerns LPS-induced IL-8 release in d-U937 cells. Description: LPS-induced IL-8 release in d-U937 cells. The settings on record: Homo sapiens, dU937, read-out: LPS Induced Release of Cytokine in d-937 Cells IL-8 IC50. It counts as cell-based. The essentials:
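Read-out: TNFα and IL-8 released into supernatant, sandwich ELISA, expressed as inhibition versus vehicle at each dose and fitted to give REC50. Cells were PMA-differentiated U937 (100 ng/mL, 48–72 hr), compound-exposed 2 hr before a 4 hr LPS stimulus (0.1 μg/mL).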

The target of data set [4] is cSrc (Homo sapiens (Human), UniProt P12931). Nature of the data set: c-Src enzyme inhibition (FRET, Z-LYTE). Format: biochemical. Put shortly: (§1)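 Z-LYTE FRET kinase assay: enzyme (3000 or 2000 ng/mL stock, respectively) preincubated 2 h at RT with compound (4–0.004 μg/mL stocks), then FRET peptide plus ATP (800 μM stock for c-Src, 60 μM for Syk) added for 1 h. Protease development 1 h; phosphorylation from coumarin/fluorescein emission ratio.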
Chain of cSrc (P12931 whole entry, looked up): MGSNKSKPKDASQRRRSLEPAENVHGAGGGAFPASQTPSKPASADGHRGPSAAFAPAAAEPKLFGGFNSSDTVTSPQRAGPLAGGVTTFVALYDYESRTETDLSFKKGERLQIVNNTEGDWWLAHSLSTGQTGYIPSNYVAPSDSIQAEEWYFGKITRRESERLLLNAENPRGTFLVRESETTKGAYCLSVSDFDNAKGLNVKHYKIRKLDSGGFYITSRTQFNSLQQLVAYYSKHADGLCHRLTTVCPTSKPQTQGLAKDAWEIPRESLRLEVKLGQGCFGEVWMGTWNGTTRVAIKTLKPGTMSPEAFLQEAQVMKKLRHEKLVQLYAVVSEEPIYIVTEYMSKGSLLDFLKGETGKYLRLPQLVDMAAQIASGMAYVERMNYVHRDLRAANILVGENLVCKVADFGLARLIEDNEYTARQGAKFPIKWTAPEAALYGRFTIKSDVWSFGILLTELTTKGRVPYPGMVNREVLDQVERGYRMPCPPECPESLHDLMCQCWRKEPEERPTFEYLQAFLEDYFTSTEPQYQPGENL

The target in data set [5] is Syk (Homo sapiens (Human), UniProt P43405). Nature of the data set: Syk enzyme inhibition (FRET, Z-LYTE). It counts as biochemical. Put shortly:
as §1

Data set [6] concerns Poly I:C-induced ICAM-1 expression in BEAS2B cells. Nature of the data set: Poly I:C-induced ICAM-1 expression in BEAS2B cells. Format: cell-based. The settings on record: Homo sapiens, BEAS-2B, read-out: Poly IC induced ICAM1 in BEAS2B IC50. Put shortly: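 Cell-based ELISA read at 450 nm minus 655 nm, divided by crystal violet OD595 to normalize for cell number, gave ICAM-1 levels. Readout was taken 18 hr after poly I:C (1 μg/mL, Oligofectamine) transfection of human bronchial BEAS2B cells pretreated 2 hr with test compound.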

Data set [7] has as its system LPS-induced TNFα release in d-U937 cells. Description: LPS-induced TNFα release in d-U937 cells. Format: cell-based. The conditions noted are these: Homo sapiens, dU937, relative to 10 μg/mL BIRB796, read-out: LPS Induced Release of Cytokine in d-937 Cells TNFα REC50. The essentials:
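PMA-differentiated (100 ng/mL, 48–72 hr) U937 cells pre-incubated with compound 2 hr, then stimulated with LPS (0.1 μg/mL, E. coli O111:B4) for 4 hr. Supernatant TNFα and IL-8 measured by sandwich ELISA; inhibition versus vehicle control, REC50 from concentration-response curve.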

The target in data set [8] is p38 MAPKα (Homo sapiens (Human), UniProt Q16539). Description: p38 MAPKα enzyme inhibition (FRET, Z-LYTE). Format: biochemical.
Chain of p38 MAPKα (Q16539 whole entry): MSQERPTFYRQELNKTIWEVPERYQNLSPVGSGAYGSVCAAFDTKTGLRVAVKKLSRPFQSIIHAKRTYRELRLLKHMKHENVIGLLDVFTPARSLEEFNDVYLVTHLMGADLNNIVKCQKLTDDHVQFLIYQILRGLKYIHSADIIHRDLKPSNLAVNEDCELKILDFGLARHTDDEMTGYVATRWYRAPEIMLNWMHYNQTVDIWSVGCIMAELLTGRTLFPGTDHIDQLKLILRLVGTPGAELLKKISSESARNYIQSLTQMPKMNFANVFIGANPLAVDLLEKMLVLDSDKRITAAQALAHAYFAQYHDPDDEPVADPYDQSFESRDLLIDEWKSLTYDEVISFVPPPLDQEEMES

The structures appear in SMILES notation.

Chain of GSK3α (P49840 whole entry): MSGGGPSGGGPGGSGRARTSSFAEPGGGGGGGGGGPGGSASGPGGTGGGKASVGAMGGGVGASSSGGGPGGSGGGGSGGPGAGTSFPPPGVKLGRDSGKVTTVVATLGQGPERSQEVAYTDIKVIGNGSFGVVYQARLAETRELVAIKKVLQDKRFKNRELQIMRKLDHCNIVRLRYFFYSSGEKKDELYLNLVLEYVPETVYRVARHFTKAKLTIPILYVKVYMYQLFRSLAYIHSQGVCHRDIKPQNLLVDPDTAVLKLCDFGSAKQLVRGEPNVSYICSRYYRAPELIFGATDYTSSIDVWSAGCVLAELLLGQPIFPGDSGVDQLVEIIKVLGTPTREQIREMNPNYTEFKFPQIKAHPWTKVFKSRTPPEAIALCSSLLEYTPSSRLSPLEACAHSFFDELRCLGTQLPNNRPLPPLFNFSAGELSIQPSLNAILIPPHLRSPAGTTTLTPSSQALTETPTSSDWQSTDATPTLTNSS

For `CC(C)c1cc(NC(=O)Nc2ccc(Oc3ccnc(Nc4ccc5c(c4)NC(=O)C5)n3)c3ccccc23)n(-c2ccc(OCCN3CCOCC3)cc2)n1` [Example 61, 1-(3-isopropyl-1-(4-(2-morpholinoethoxy)phenyl)-1H-pyrazol-5-yl)-3-(4-((2-((2-oxoindolin-6-yl)amino)pyrimidin-4-yl)oxy)naphthalen-1-yl)urea], the IC50 in data set [1] is 1.54 µM; in data set [3] it was 0.0847 µM; in data set [4] it was below 0.001 µM; in data set [5], 0.007 µM; in data set [6] it was above 0.135 µM; in data set [8], 0.014 µM. Besides, the “MTT Assay Cell viability at time point in d-U937 cells 4 h” value in data set [2] was “−ve (−ve and +ve indicate that the value is below and above respectively, the no significant effect threshold, defined as 30% inhibition at 1 μg/mL at the time point indicated.)”. Also, in data set [2], the “MTT Assay Cell viability at time point in d-U937 cells 24 h” value is “−ve (−ve and +ve indicate that the value is below and above respectively, the no significant effect threshold, defined as 30% inhibition at 1 μg/mL at the time point indicated.)”. For the same molecule, the EC50 in data set [7] is 0.0187 µM.
Consider `CC(C)(C)c1cc(NC(=O)Nc2ccc(Oc3ccnc(Nc4ccc5[nH]ncc5c4)n3)c3ccccc23)n(-c2cccc(CN3CCCC3=O)c2)n1` [Example 49, 1-(4-((2-((1H-indazol-5-yl)amino)pyrimidin-4-yl)oxy)naphthalen-1-yl)-3-(3-(tert-butyl)-1-(3-((2-oxopyrrolidin-1-yl)methyl)phenyl)-1H-pyrazol-5-yl)urea], for which the IC50 turned out to be 1.35 µM in data set [1]; 0.0097 µM in data set [3]; 0.005 µM in data set [4]; 0.012 µM in data set [5]; 0.0022 µM in data set [6]; 0.029 µM in data set [8]. Further, the “MTT Assay Cell viability at time point in d-U937 cells 4 h” value in data set [2] is “−ve (−ve and +ve indicate that the value is below and above respectively, the no significant effect threshold, defined as 30% inhibition at 1 μg/mL at the time point indicated.)”. For the same molecule, the “MTT Assay Cell viability at time point in d-U937 cells 24 h” value in data set [2] was “−ve (−ve and +ve indicate that the value is below and above respectively, the no significant effect threshold, defined as 30% inhibition at 1 μg/mL at the time point indicated.)”. In addition, the EC50 in data set [7] amounted to 0.0025 µM.
`CC(C)(C)c1cc(NC(=O)Nc2ccc(Oc3ccnc(Nc4ccc5sncc5c4)n3)c3ccccc23)n(-c2ccc(OCCN3CCOCC3)cc2)n1` [Example 78, 1-(4-((2-(benzo[d]isothiazol-5-ylamino)pyrimidin-4-yl)oxy)naphthalen-1-yl)-3-(3-(tert-butyl)-1-(4-(2-morpholinoethoxy)phenyl)-1H-pyrazol-5-yl)urea]: the IC50 worked out at 2.42 µM in data set [1]; 0.0074 µM in data set [3]; 0.008 µM in data set [4]; 0.033 µM in data set [5]; 0.0079 µM in data set [6]; 0.139 µM in data set [8]. In addition, the “MTT Assay Cell viability at time point in d-U937 cells 4 h” value in data set [2] was “−ve (−ve and +ve indicate that the value is below and above respectively, the no significant effect threshold, defined as 30% inhibition at 1 μg/mL at the time point indicated.)”. Further, the “MTT Assay Cell viability at time point in d-U937 cells 24 h” value in data set [2] was “−ve (−ve and +ve indicate that the value is below and above respectively, the no significant effect threshold, defined as 30% inhibition at 1 μg/mL at the time point indicated.)”. The EC50 in data set [7] was 0.0047 µM.
Regarding `Cc1ccc(-n2nc(C(C)(C)C)cc2NC(=O)Nc2ccc(Oc3ccnc(Nc4ccc5c(cnn5CCN5CCOCC5)c4)n3)c3ccccc23)cc1` [Example 29, 1-(3-(tert-butyl)-1-(p-tolyl)-1H-pyrazol-5-yl)-3-(4-((2-((1-(2-morpholinoethyl)-1H-indazol-5-yl)amino)pyrimidin-4-yl)oxy)naphthalen-1-yl)urea], the IC50 turned out to be 0.582 µM in data set [1]; 0.0211 µM in data set [3]; 0.012 µM in data set [4]; 0.029 µM in data set [5]; 0.0009 µM in data set [6]; 0.057 µM in data set [8]. In addition, in data set [2], the “MTT Assay Cell viability at time point in d-U937 cells 4 h” value is “−ve (−ve and +ve indicate that the value is below and above respectively, the no significant effect threshold, defined as 30% inhibition at 1 μg/mL at the time point indicated.)”. Further, the “MTT Assay Cell viability at time point in d-U937 cells 24 h” value in data set [2] was “−ve (−ve and +ve indicate that the value is below and above respectively, the no significant effect threshold, defined as 30% inhibition at 1 μg/mL at the time point indicated.)”. The EC50 in data set [7] was 0.0099 µM.
Turning to `Cc1ccc(-n2nc(C(C)(C)C)cc2NC(=O)Nc2ccc(Oc3ccnc(Nc4ccc5c(c4)CC(=O)N5)n3)c3ccccc23)cc1` [Example 19, 1-(3-(tert-butyl)-1-(p-tolyl)-1H-pyrazol-5-yl)-3-(4-((2-((2-oxoindolin-5-yl)amino)pyrimidin-4-yl)oxy)naphthalen-1-yl)urea], the IC50 in data set [1] is 1.01 µM; in data set [3] it was 0.0019 µM; in data set [4], 0.007 µM; in data set [5] it was 0.032 µM; in data set [6], 0.0024 µM; in data set [8] it was 0.012 µM. The “MTT Assay Cell viability at time point in d-U937 cells 4 h” value in data set [2] was “−ve (−ve and +ve indicate that the value is below and above respectively, the no significant effect threshold, defined as 30% inhibition at 1 μg/mL at the time point indicated.)”. In data set [2], the “MTT Assay Cell viability at time point in d-U937 cells 24 h” value was “−ve (−ve and +ve indicate that the value is below and above respectively, the no significant effect threshold, defined as 30% inhibition at 1 μg/mL at the time point indicated.)”. In addition, the EC50 in data set [7] is 0.0018 µM.
Consider `Cc1nc2cc(Nc3nccc(Oc4ccc(NC(=O)Nc5cc(C(C)(C)C)nn5-c5ccc(OCCN6CCOCC6)cc5)c5ccccc45)n3)ccc2[nH]1` [Example 75, 1-(3-(tert-butyl)-1-(4-(2-morpholinoethoxy)phenyl)-1H-pyrazol-5-yl)-3-(4-((2-((2-methyl-1H-benzo[d]imidazol-6-yl)amino)pyrimidin-4-yl)oxy)naphthalen-1-yl)urea], for which the IC50 in data set [1] was 4.95 µM; in data set [3], 0.0439 µM; in data set [4], below 0.001 µM; in data set [5], below 0.001 µM; in data set [6], 0.0163 µM; in data set [8], 0.036 µM. Moreover, in data set [2], the “MTT Assay Cell viability at time point in d-U937 cells 4 h” value was “−ve (−ve and +ve indicate that the value is below and above respectively, the no significant effect threshold, defined as 30% inhibition at 1 μg/mL at the time point indicated.)”. For the same molecule, the “MTT Assay Cell viability at time point in d-U937 cells 24 h” value in data set [2] was “−ve (−ve and +ve indicate that the value is below and above respectively, the no significant effect threshold, defined as 30% inhibition at 1 μg/mL at the time point indicated.)”. In data set [7], the EC50 came to 0.0142 µM.
Turning to `Cc1ccc(-n2nc(C(C)(C)C)cc2NC(=O)Nc2ccc(Oc3ccnc(Nc4cc(C)c5[nH]ncc5c4)n3)c3ccccc23)cc1` [Example 27, 1-(3-(tert-butyl)-1-(p-tolyl)-1H-pyrazol-5-yl)-3-(4-((2-((7-methyl-1H-indazol-5-yl)amino)pyrimidin-4-yl)oxy)naphthalen-1-yl)urea], the IC50 in data set [1] is above 1.57 µM; in data set [3], 0.0007 µM; in data set [4], 0.011 µM; in data set [5], 0.017 µM; in data set [6], 0.0024 µM; in data set [8], 0.263 µM. Also, in data set [2], the “MTT Assay Cell viability at time point in d-U937 cells 4 h” value is “−ve (−ve and +ve indicate that the value is below and above respectively, the no significant effect threshold, defined as 30% inhibition at 1 μg/mL at the time point indicated.)”. Moreover, the “MTT Assay Cell viability at time point in d-U937 cells 24 h” value in data set [2] is “−ve (−ve and +ve indicate that the value is below and above respectively, the no significant effect threshold, defined as 30% inhibition at 1 μg/mL at the time point indicated.)”. Besides, in data set [7], the EC50 came to 0.002 µM.

As a reminder, the IC50 is the concentration that inhibits the measured activity by half.

Source of the values: patent publication US9249125B2, “Pyrazole derivatives as p38 MAP inhibitors” (RESPIVERT LIMITED, priority 2012, dated 2016).
